The values below come from patent publication US12649750B2, “Macrocyclic compounds, compositions, and methods of using thereof” (Sionna Therapeutics Inc., priority 2022, dated 2026).

In one assay the target is T1, NBD1 (Homo sapiens, UniProt P13569).
T1 construct: Purified recombinant NBD1 was produced using previously described methods; made in house
Description: Aggregation analysis using differential static light scattering (DSLS), thermal stability of NBD1 (ΔTagg). It counts as binding. The note with it: ΔTagg versus DMSO control, NBD1 0.2 mg/ml. The gist of the method:
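Purified recombinant NBD1 at 0.2 mg/ml in 50 mM Tris-HCl, 150 mM NaCl, 5 mM MgCl2, 2 mM ATP, 2 mM DTT, pH 7.6, 1% glycerol, with compound, heated 1° C./min to 70° C. under light-scattering monitoring. Tagg taken at curve inflection; ΔTagg is compound Tagg minus mean DMSO-control Tagg, binned A (≤5° C.), B (>5-≤10° C.), C (>10-≤25° C.).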

The next assay concerns the target T2, CFTR (Homo sapiens, UniProt P13569, DEL508-508).
T2 construct: Primary human bronchial epithelial cells from a ΔF508 homozygous CF donor; host or cells: primary human bronchial epithelial cells (CF-HBE), ΔF508 homozygous donor
Description: TECC24 AUC fold over DMSO @10 μM, CFTR-mediated transepithelial chloride transport in CF-HBE cells. It counts as cell-based. The note with it: test agent AUC divided by DMSO vehicle AUC, primary CF-HBE cells, ΔF508 homozygous donor, 48 hours incubation. In outline:
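Value is ratio of test-agent to DMSO AUC of equivalent transepithelial Cl− current, integrated from forskolin (10 μM) stimulation to CFTR inhibitor-172 (20 μM) block, with benzamil 10 μM present. CF-HBE (ΔF508/ΔF508) cultures had 48 h compound exposure at 10 μM, 36.5° C before recording.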

Structures are written as SMILES.

T1 sequence (P13569 423-646 limits assumed): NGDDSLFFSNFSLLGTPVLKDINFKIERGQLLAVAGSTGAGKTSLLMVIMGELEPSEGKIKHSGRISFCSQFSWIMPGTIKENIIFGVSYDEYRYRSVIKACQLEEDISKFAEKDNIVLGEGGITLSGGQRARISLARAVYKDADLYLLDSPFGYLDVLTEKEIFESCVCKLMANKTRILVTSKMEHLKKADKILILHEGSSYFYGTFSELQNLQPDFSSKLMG
T2 sequence (P13569 with tags, fused parts or gaps DEL508-508): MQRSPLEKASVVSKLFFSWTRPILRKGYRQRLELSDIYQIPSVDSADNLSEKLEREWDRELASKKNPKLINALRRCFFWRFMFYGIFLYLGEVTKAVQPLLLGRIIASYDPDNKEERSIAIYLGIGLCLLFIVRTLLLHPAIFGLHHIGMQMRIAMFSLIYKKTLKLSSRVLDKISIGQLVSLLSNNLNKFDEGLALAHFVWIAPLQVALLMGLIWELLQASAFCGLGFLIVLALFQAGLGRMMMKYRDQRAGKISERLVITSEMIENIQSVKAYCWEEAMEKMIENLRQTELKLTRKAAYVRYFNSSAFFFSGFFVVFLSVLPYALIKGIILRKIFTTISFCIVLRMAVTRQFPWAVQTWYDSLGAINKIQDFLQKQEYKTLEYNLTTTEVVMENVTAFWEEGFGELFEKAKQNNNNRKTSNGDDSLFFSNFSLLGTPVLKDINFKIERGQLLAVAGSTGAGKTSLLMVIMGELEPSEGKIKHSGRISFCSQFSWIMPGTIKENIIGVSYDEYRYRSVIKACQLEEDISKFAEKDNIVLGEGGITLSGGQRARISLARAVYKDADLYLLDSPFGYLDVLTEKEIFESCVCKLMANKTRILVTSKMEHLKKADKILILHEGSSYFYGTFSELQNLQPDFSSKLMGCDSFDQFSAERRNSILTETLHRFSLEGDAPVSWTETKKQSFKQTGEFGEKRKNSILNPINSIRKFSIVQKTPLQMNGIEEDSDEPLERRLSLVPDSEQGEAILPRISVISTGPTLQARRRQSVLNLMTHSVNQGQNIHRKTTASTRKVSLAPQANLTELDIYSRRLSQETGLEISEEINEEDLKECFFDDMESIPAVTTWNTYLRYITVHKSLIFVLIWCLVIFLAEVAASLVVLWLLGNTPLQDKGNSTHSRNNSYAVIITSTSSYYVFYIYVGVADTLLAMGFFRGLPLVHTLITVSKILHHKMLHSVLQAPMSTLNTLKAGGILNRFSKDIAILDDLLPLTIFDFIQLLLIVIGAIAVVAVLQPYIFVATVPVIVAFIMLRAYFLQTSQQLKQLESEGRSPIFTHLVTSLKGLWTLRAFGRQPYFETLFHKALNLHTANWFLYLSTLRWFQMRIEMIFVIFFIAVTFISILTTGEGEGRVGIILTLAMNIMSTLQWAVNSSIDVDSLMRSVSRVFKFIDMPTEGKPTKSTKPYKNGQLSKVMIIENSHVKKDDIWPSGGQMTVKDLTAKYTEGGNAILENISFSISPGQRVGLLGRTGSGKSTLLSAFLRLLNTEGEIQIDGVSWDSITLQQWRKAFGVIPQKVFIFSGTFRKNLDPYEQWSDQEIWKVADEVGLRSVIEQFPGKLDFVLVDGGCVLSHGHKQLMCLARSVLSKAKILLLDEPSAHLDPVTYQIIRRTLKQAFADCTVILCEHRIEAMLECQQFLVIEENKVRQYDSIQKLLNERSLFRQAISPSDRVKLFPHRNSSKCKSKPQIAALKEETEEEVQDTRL

Regarding `CC(Cc1cccc(C2(C)CCOC(C)(C)CS(=O)(=O)CCc3c(c(F)cc4[nH]ccc34)Oc3ccc(F)c(c3)-c3nc2nn3C)c1)C(=O)O` (single isomer, unassigned) [Compound 28A, 3-[3-(22,28-difluoro-3,6,10,10-tetramethyl-12,12-dioxo-9,24-dioxa-12lambda6-thia-3,4,19,30-tetrazapentacyclo[23.3.1.12,5.015,23.016,20]triaconta-1(29),2(30),4,15,17,20,22,25,27-nonaen-6-yl)phenyl]-2-methyl-propanoic Acid], on NBD1, the “DSLS 3D (100 μM ΔT)” value is “C (a value greater than 10 °C and less than or equal to 25 °C is marked “C”)”. For the same compound, at CFTR, the “TECC (AUC, 10 μM)” value is “C (a value between 20 and 80 is marked “C”)”.
As to `CC(Cc1cccc(C2(C)CCOC(C)(C)CS(=O)(=O)CCc3c(c(F)cc4[nH]ccc34)Oc3ccc(F)c(c3)-c3nc2nn3C)c1)C(=O)O` (single isomer, unassigned) [Compound 28B, 3-[3-(22,28-difluoro-3,6,10,10-tetramethyl-12,12-dioxo-9,24-dioxa-12lambda6-thia-3,4,19,30-tetrazapentacyclo[23.3.1.12,5.015,23.016,20]triaconta-1(29),2(30),4,15,17,20,22,25,27-nonaen-6-yl)phenyl]-2-methyl-propanoic Acid], the “DSLS 3D (100 μM ΔT)” value at NBD1 is “A (an ΔTagg value less than or equal to 5 °C is marked “A”)”. Also, the “TECC (AUC, 10 μM)” value on CFTR is “B (a value between 12-20 is marked “B”)”.
Turning to `Cn1nc2nc1-c1cc(ccc1F)Oc1c(F)cc3[nH]ccc3c1CCS(=O)(=O)CC(C)(C)CCCC2(C)c1cccc(CC(C)(C)C(=O)O)c1` (single isomer, unassigned) [Compound 29A, 3-[3-(22,28-Difluoro-3,6,10,10-tetramethyl-12,12-dioxo-24-oxa-12lambda6-thia-3,4,19,30-tetrazapentacyclo[23.3.1.12,5.015,23.016,20]triaconta-1(29),2(30),4,15,17,20,22,25,27-nonaen-6-yl)phenyl]-2,2-dimethyl-propanoic acid], the “DSLS 3D (100 μM ΔT)” value at NBD1 is “C (a value greater than 10 °C and less than or equal to 25 °C is marked “C”)”. The “TECC (AUC, 10 μM)” value on CFTR was “C (a value between 20 and 80 is marked “C”)”.
For the compound `Cn1nc2nc1-c1cc(ccc1F)Oc1c(F)cc3[nH]ccc3c1CCS(=O)(=O)CC(C)(C)CCCC2(C)c1cccc(CC(C)(C)C(=O)O)c1` (single isomer, unassigned) [Compound 29B, 3-[3-(22,28-Difluoro-3,6,10,10-tetramethyl-12,12-dioxo-24-oxa-12lambda6-thia-3,4,19,30-tetrazapentacyclo[23.3.1.12,5.015,23.016,20]triaconta-1(29),2(30),4,15,17,20,22,25,27-nonaen-6-yl)phenyl]-2,2-dimethyl-propanoic acid], the “DSLS 3D (100 μM ΔT)” value at NBD1 was “A (an ΔTagg value less than or equal to 5 °C is marked “A”)”. For the same compound, the “TECC (AUC, 10 μM)” value on CFTR is on record as “A (a TECC value less than 12 is marked “A”)”.
Take `Cn1nc2nc1-c1cc(ccc1F)C(O)c1c(F)cc3[nH]ccc3c1CCS(=O)(=O)CC(C)(C)CCCC2(C)c1cccc(CCC(=O)O)c1` (single isomer, unassigned) [Compound 30A, 3-[3-(22,28-difluoro-24-hydroxy-3,6,10,10-tetramethyl-12,12-dioxo-12lambda6-thia-3,4,19,30-tetrazapentacyclo[23.3.1.12,5.015,23.016,20]triaconta-1(29),2(30),4,15,17,20,22,25,27-nonaen-6-yl)phenyl]propanoic acid]: the “DSLS 3D (100 μM ΔT)” value on NBD1 is “C (a value greater than 10 °C and less than or equal to 25 °C is marked “C”)”. The “TECC (AUC, 10 μM)” value on CFTR is “C (a value between 20 and 80 is marked “C”)”.
Regarding `Cn1nc2nc1-c1cc(ccc1F)C(O)c1c(F)cc3[nH]ccc3c1CCS(=O)(=O)CC(C)(C)CCCC2(C)c1cccc(CCC(=O)O)c1` (single isomer, unassigned) [Compound 30B, 3-[3-(22,28-difluoro-24-hydroxy-3,6,10,10-tetramethyl-12,12-dioxo-12lambda6-thia-3,4,19,30-tetrazapentacyclo[23.3.1.12,5.015,23.016,20]triaconta-1(29),2(30),4,15,17,20,22,25,27-nonaen-6-yl)phenyl]propanoic acid], the “DSLS 3D (100 μM ΔT)” value at NBD1 was “B (a value above 5 °C and less than or equal to 10 °C is marked “B”)”. The “TECC (AUC, 10 μM)” value on CFTR is listed as “B (a value between 12-20 is marked “B”)”.
Take `Cn1nc2nc1-c1cc(ccc1F)C(O)c1c(F)cc3[nH]ccc3c1CCS(=O)(=O)CC(C)(C)CCCC2(C)c1cccc(CCC(=O)O)c1` (single isomer, unassigned) [Compound 30C, 3-[3-(22,28-difluoro-24-hydroxy-3,6,10,10-tetramethyl-12,12-dioxo-12lambda6-thia-3,4,19,30-tetrazapentacyclo[23.3.1.12,5.015,23.016,20]triaconta-1(29),2(30),4,15,17,20,22,25,27-nonaen-6-yl)phenyl]propanoic acid]: the “DSLS 3D (100 μM ΔT)” value on NBD1 was “B (a value above 5 °C and less than or equal to 10 °C is marked “B”)”. For the same compound, the “TECC (AUC, 10 μM)” value at CFTR was “C (a value between 20 and 80 is marked “C”)”.
For the compound `Cn1nc2nc1-c1cc(ccc1F)C(O)c1c(F)cc3[nH]ccc3c1CCS(=O)(=O)CC(C)(C)CCCC2(C)c1cccc(CCC(=O)O)c1` (single isomer, unassigned) [Compound 30D, 3-[3-(22,28-difluoro-24-hydroxy-3,6,10,10-tetramethyl-12,12-dioxo-12lambda6-thia-3,4,19,30-tetrazapentacyclo[23.3.1.12,5.015,23.016,20]triaconta-1(29),2(30),4,15,17,20,22,25,27-nonaen-6-yl)phenyl]propanoic acid], the “DSLS 3D (100 μM ΔT)” value on NBD1 is “C (a value greater than 10 °C and less than or equal to 25 °C is marked “C”)”. The “TECC (AUC, 10 μM)” value at CFTR was “A (a TECC value less than 12 is marked “A”)”.
As to `COC(=O)CCc1cccc(C2(C)CCCC(C)(C)CS(=O)(=O)CCc3c(c(F)cc4[nH]ccc34)C(=O)c3ccc(F)c(c3)-c3nc2nn3C)c1` (single isomer, unassigned) [Compound 31A, methyl 3-[3-[22,28-difluoro-3,6,10,10-tetramethyl-12,12,24-trioxo-12lambda6-thia-3,4,19,30-tetrazapentacyclo[23.3.1.12,5.015,23.016,20]triaconta-1(29),2(30),4,15,17,20,22,25,27-nonaen-6-yl]phenyl]propanoate], on NBD1, the “DSLS 3D (100 μM ΔT)” value was “B (a value above 5 °C and less than or equal to 10 °C is marked “B”)”. Besides, the “TECC (AUC, 10 μM)” value at CFTR is “C (a value between 20 and 80 is marked “C”)”.
In the case of `COC(=O)CCc1cccc(C2(C)CCCC(C)(C)CS(=O)(=O)CCc3c(c(F)cc4[nH]ccc34)C(=O)c3ccc(F)c(c3)-c3nc2nn3C)c1` (single isomer, unassigned) [Compound 31B, methyl 3-[3-[22,28-difluoro-3,6,10,10-tetramethyl-12,12,24-trioxo-12lambda6-thia-3,4,19,30-tetrazapentacyclo[23.3.1.12,5.015,23.016,20]triaconta-1(29),2(30),4,15,17,20,22,25,27-nonaen-6-yl]phenyl]propanoate], on NBD1, the “DSLS 3D (100 μM ΔT)” value was “A (an ΔTagg value less than or equal to 5 °C is marked “A”)”. On CFTR, the “TECC (AUC, 10 μM)” value was “B (a value between 12-20 is marked “B”)”.
In the case of `Cn1nc2nc1-c1cc(ccc1F)C(=O)c1c(F)cc3[nH]ccc3c1CCS(=O)(=O)CC(C)(C)CCCC2(C)c1cccc(CCC(=O)O)c1` (single isomer, unassigned) [Compound 31C, 3-[3-[22,28-difluoro-3,6,10,10-tetramethyl-12,12,24-trioxo-12lambda6-thia-3,4,19,30-tetrazapentacyclo[23.3.1.12,5.015,23.016,20]triaconta-1(29),2(30),4,15,17,20,22,25,27-nonaen-6-yl]phenyl]propanoic Acid], the “DSLS 3D (100 μM ΔT)” value on NBD1 is “C (a value greater than 10 °C and less than or equal to 25 °C is marked “C”)”. Further, the “TECC (AUC, 10 μM)” value at CFTR was “C (a value between 20 and 80 is marked “C”)”.
As for `Cn1nc2nc1-c1cc(ccc1F)C(=O)c1c(F)cc3[nH]ccc3c1CCS(=O)(=O)CC(C)(C)CCCC2(C)c1cccc(CCC(=O)O)c1` (single isomer, unassigned) [Compound 31D, 3-[3-[22,28-difluoro-3,6,10,10-tetramethyl-12,12,24-trioxo-12lambda6-thia-3,4,19,30-tetrazapentacyclo[23.3.1.12,5.015,23.016,20]triaconta-1(29),2(30),4,15,17,20,22,25,27-nonaen-6-yl]phenyl]propanoic acid], on NBD1, the “DSLS 3D (100 μM ΔT)” value was “A (an ΔTagg value less than or equal to 5 °C is marked “A”)”. Also, the “TECC (AUC, 10 μM)” value at CFTR was “C (a value between 20 and 80 is marked “C”)”.
As for `Cn1nc2nc1-c1cc(ccc1F)Cc1c(F)cc3[nH]ccc3c1CCS(=O)(=O)CC(C)(C)CCCC2(C)c1cccc(CCC(=O)O)c1` (single isomer, unassigned) [Compound 32A, 3-[3-(22,28-Difluoro-3,6,10,10-tetramethyl-12,12-dioxo-12lambda6-thia-3,4,19,30-tetrazapentacyclo[23.3.1.12,5.015,23.016,20]triaconta-1(29),2(30),4,15,17,20,22,25,27-nonaen-6-yl)phenyl]propanoic Acid], the “DSLS 3D (100 μM ΔT)” value on NBD1 was “A (an ΔTagg value less than or equal to 5 °C is marked “A”)”. Further, the “TECC (AUC, 10 μM)” value at CFTR is listed as “A (a TECC value less than 12 is marked “A”)”.
